Where two headings read alike, the source gives them in different places.
What was measured:
Aedes aegypti mosquitoes [1] = assay: Drug effect on mosquito fertility (percentage of eggs hatched); assay type: in vivo; settings: 100 eggs laid 48-96 h post-treatment; IVM 0.1, KCZ 5, RIF 10, RTV 10, PBO 10 μg/ml in blood
Experimental: The mixtures were rotated at room temperature for 30 min to ensure a uniform drug distribution (Rotator Genie, Scientific Industries, Bohemia, USA). […] Twelve hours later, the tap water was also removed to starve the mosquitoes. […] The mosquitoes were then feeding from blood through the netting and the Parafilm membrane. […] The photoperiod of the climate chamber and the insectary were synchronised. […] The engorged mosquitoes were either directly frozen at -20°C or returned to the climate chamber for certain time periods to assess the PK. […] Blood feeding was done as described above. […] In contrast to the PK experiments, the mosquitoes had unlimited access to water because a moistened oviposition substrate was inserted into the paper cup. […] Any hatched larva was counted and transferred to a rearing tray with a plastic pipette. The fertility was calculated as the percentage of eggs hatched. […] R Foundation for Statistical Computing, http://www.R-project.org, Vienna, Austria). Normality was assessed using the Shapiro-Wilk test. For normally distributed data (mortality, fecundity), group differences were assessed with one-way ANOVA testing, and, where applicable, followed up with Tukey's test. Group differences in fertility (not normally distributed) were evaluated with Kruskal-Wallis one-way analysis of variance, and Wilcoxon rank sum testing as post-hoc.

[2] = Pharmacokinetic and drug-drug interaction studies in blood-fed mosquitoes (concentration-time courses, population PK modelling); settings: for Course / extent of elimination from the mosquitoes: IVM 0.1, KCZ 5, RIF 10, PBO 10 μg/ml in blood, up to 72 h; for Type of elimination kinetics in the mosquito: IVM 0.1, KCZ 5, RIF 10, RTV 10, PBO 10 μg/ml in blood; for Effect of the co-administered CYP modulator on the PK of ivermectin: ivermectin 0.1 μg/ml plus KCZ 5, RIF 10, RTV 10 or PBO 10 μg/ml in blood, 72 h
Aedes aegypti mosquitoes [3] = assay: Drug effect on mosquito fecundity (eggs laid after 96 h); assay type: in vivo; settings: 4 days; IVM 0.1, KCZ 5, RIF 10, RTV 10, PBO 10 μg/ml in blood; 50 mosquitoes
Experimental: The mixtures were rotated at room temperature for 30 min to ensure a uniform drug distribution (Rotator Genie, Scientific Industries, Bohemia, USA). […] Twelve hours later, the tap water was also removed to starve the mosquitoes. […] The mosquitoes were then feeding from blood through the netting and the Parafilm membrane. […] The photoperiod of the climate chamber and the insectary were synchronised. […] The engorged mosquitoes were either directly frozen at -20°C or returned to the climate chamber for certain time periods to assess the PK. […] Blood feeding was done as described above. […] In contrast to the PK experiments, the mosquitoes had unlimited access to water because a moistened oviposition substrate was inserted into the paper cup. Fecundity was defined as the total number of eggs laid after 96 h. […] The filter paper served as the oviposition substrate. The cotton wool was soaked with fresh water and covered by a new filter paper after 48, 72, and 96 h post-treatment. After the assay, the eggs were left to mature for 24 h in the insectary. […] R Foundation for Statistical Computing, http://www.R-project.org, Vienna, Austria). Normality was assessed using the Shapiro-Wilk test. For normally distributed data (mortality, fecundity), group differences were assessed with one-way ANOVA testing, and, where applicable, followed up with Tukey's test. Group differences in fertility (not normally distributed) were evaluated with Kruskal-Wallis one-way analysis of variance, and Wilcoxon rank sum testing as post-hoc.

Aedes aegypti mosquitoes [4] = settings: IVM 0.1, KCZ 5, RIF 10, RTV 10, PBO 10 μg/ml in blood, 50 mosquitoes

Structure (SMILES) | Mosquito fertility, Batch 1, hatching rate (Aedes aegypti mosquitoes [1]) [%] | Mosquito fertility, Batch 2, hatching rate (Aedes aegypti mosquitoes [1]) [%] | Mosquito fertility, Batch 3, hatching rate (Aedes aegypti mosquitoes [1]) [%] | Course / extent of elimination from the mosquitoes [2] | Type of elimination kinetics in the mosquito [2] | concentration at 0 h ([2]; female, Aedes aegypti, in vivo, CYP modulator concentration (ng/mg mosquito), Treatment KCZ + IVM (5 µg/ml KCZ, 0.1 µg/ml IVM), Batch 1, 0 h post feeding, single mosquitoes 1-20) [ng/g] | concentration at 72 h ([2]; female, Aedes aegypti, in vivo, CYP modulator concentration (ng/mg mosquito), Treatment KCZ + IVM (5 µg/ml KCZ, 0.1 µg/ml IVM), Batch 1, 72 h post feeding, single mosquitoes 1-20) [ng/g] | Effect of the co-administered CYP modulator on the PK of ivermectin [2] | Effect of the co-administered CYP modulator on the PK of ivermectin ([2]; listed as Ketoconazole) | Share of the dose excreted after 6 h ([2]; ketoconazole 5 μg/ml with ivermectin 0.1 μg/ml in blood) [%] | Mosquito fecundity, Batch 1, mg eggs (4 days) (Aedes aegypti mosquitoes [3]) [mg eggs] | Mosquito fecundity, Batch 2, mg eggs (4 days) (Aedes aegypti mosquitoes [3]) [mg eggs] | Mosquito fecundity, Batch 3, mg eggs (4 days) (Aedes aegypti mosquitoes [3]) [mg eggs] | Mosquito survival (%) (Aedes aegypti mosquitoes [4]; 0 days post feeding) | Mosquito survival (%) (Aedes aegypti mosquitoes [4]; 1 day post feeding) | Tmax ([2]; female, Aedes aegypti, in vivo) [h] | concentration at 0 h ([2]; female, Aedes aegypti, whole mosquito (whole-body extract), oral, CYP modulator concentration (ng/mg mosquito), Treatment RTV + IVM (10 µg/ml RTV, 0.1 µg/ml IVM), Batch 3, 0 h post feeding, single mosquitoes 1-20) [ng/g]
CC(=O)N1CCN(c2ccc(OCC3COC(Cn4ccnc4)(c4ccc(Cl)cc4Cl)O3)cc2)CC1 (stereo not shown) [ketoconazole] | 60 | 73 | 82 | only few samples could be quantified 36 h post-feeding | first order elimination | 639 | 0 | not altered | No effect | 75 | 30.30 | 22.14 | 33.56 | – | – | – | –
CCCCOCCOCCOCc1cc2c(cc1CCC)OCO2 [piperonyl butoxide] | 81 | 71 | 86 | – | – | – | – | – | – | – | 32.86 | 20.66 | 35.34 | – | – | – | –
CO[C@H]1/C=C/O[C@@]2(C)Oc3c(C)c(O)c4c(O)c(c(/C=N/N5CCN(C)CC5)c(O)c4c3C2=O)NC(=O)/C(C)=C\C=C\[C@H](C)[C@H](O)[C@@H](C)[C@@H](O)[C@@H](C)[C@H](OC(C)=O)[C@@H]1C [rifampicin] | 83 | 78 | 79 | almost not eliminated during the first 2 days | accumulated over days | – | – | – | – | – | 32.99 | 21.40 | 36.14 | 100 | 100 | ~36 | –
CC(C)c1nc(CN(C)C(=O)N[C@H](C(=O)N[C@@H](Cc2ccccc2)C[C@H](O)[C@H](Cc2ccccc2)NC(=O)OCc2cncs2)C(C)C)cs1 [ritonavir] | 87 | 74 | 83 | – | – | – | – | – | – | – | 38.37 | 21.29 | 33.90 | – | – | – | 4230
